Measurements taken from publication PMC8582824, “Targeting DDX3X Helicase Activity with BA103 Shows Promising Therapeutic Effects in Preclinical Glioblastoma Models” (Cancers, 2021).
≈ marks a conversion by molar mass, not a printed value.

Assays:
BJ primary fibroblasts = assay: Cytotoxicity against BJ primary fibroblasts; type: cell-based
Description: For CellTiter 96® Aqueous One Solution Cell Proliferation Assay (MTS) (Promega, Madison, WI, USA), cells were seeded at 5 × 10^3 per well in 96-well plates in quadruplicate together a control with no cells to evaluate the background. After 24 h, the culture medium was removed, and fresh medium containing increasing concentrations of chemical compounds was added to cells. The fixed final concentrations were 0.1 μM, 1 μM, 10 μM, and 100 μM. DMSO was the vehicle used for dilution of the compounds, and its final concentration on cells was less than 0.2%. Medium-only containing wells were included as controls. Cells were incubated with compounds at different concentrations for 72 h, then, 20 µL of CellTiter 96® AQueous One Solution Reagent was added into each well. After 3 h at 37 °C in a humidified, 5% CO2 atmosphere, the absorbance at 492 nm was recorded using an EZREAD400 (Biochrom, Cambridge, United Kingdom) plate reader. The average 490 nm absorbance from the “no cell” control wells was subtracted from all other values to yield background-corrected absorbance. Dose–response curves and CC50 values have been calculated by plotting the absorbance data as a function of inhibitor concentrations and fitting the data by least-squares nonlinear regression, according to the method of Marquardt–Levenberg, with the computer program GraphPad Prism 6.0.
Cells were incubated with a scalar concentration of DDX3X inhibitors, and after 72 h of treatment, cell viability was assessed by cytotoxicity assay. […] Compounds 4, 6, and BA103 were also evaluated against BJ primary fibroblasts; compound 4 has a cytotoxicity value of 84.7 μM; on the contrary, compounds 6 and BA103 were not toxic up to 200 μM concentration. This further excluded a possible nonspecific cytotoxic effect. […] Due to its interesting profile, compound BA103 was further tested against additional pulmonary (A549), breast (MDA-MB-231), colorectal (HCT-116), osteosarcoma (U2OS), rhabdomyosarcoma (RD18), GBM (DBTRG, U87, and U251) and medulloblastoma (DAOY) cancer cell lines.

Water solubility assay = type: physicochemical; settings: 27 °C, thermodynamic from solid, read-out: LogS (aqueous solubility) (converted)
Description: Preliminary in vitro ADME analysis was performed to early evaluate the pharmacokinetic (PK) profile of our compounds (Figure 8). Aqueous solubility was calculated by LC-MS-MS analysis. An aliquot of 1 mg of compound was stirred for 24 h at 27 °C in 1 mL of water. The mixture was filtered, and the quantity of solubilized compound was determined. Passive permeability was determined using parallel artificial membrane permeability assay (PAMPA). Microsomal metabolic stability was determined by LC-UV-MS analysis by incubating compounds with human liver microsomes at 37 °C for 60 min (for details, see the Supporting Information). […]
Each solid compound (1 mg) was added to 1 mL of water. The samples were shaked in a shaker bath at room temperature for 24-36 h. The suspensions were filtered through a 0.45 μm nylon filter (Acrodisc), and the solubilized compound determined by LC-MS-MS assay. For each compound the determination was […]
For the quantification was used an LC-MS system consisted of a Varian apparatus (Varian Inc) including a vacuum solvent degassing unit, two pumps (212-LC), a Triple Quadrupole MSD (Mod. 320-LC) mass spectrometer with ES interface and Varian MS Workstation System Control Vers. 6.9 software.
Chromatographic separation was obtained using a Pursuit C18 column (50 x 2.0 mm) (Varian) with 3 μm particle size and gradient elution: eluent A being ACN and eluent B consisting of water. […] The flow rate was 0.2 mL min-1 and injection volume was 5 μL. The instrument operated in positive mode and parameters were: detector 1850 V, drying gas pressure 25.0 psi, desolvation temperature 300.0 °C, nebulizing gas 40.0 psi, needle 5000 V and shield 600 V. Nitrogen was used as nebulizer gas and drying gas. […]
Chromatographic analysis was performed with an Agilent 1100 LC/MSD VL system (G1946C) (Agilent Technologies, Palo Alto, CA) constituted by a vacuum solvent degassing unit, a binary high-pressure gradient pump, an 1100 series UV detector, and an 1100 MSD model VL benchtop mass spectrometer.
Chromatographic separation was obtained using a Varian Polaris C18-A column (150-4.6 mm, 5 μm particle size) and gradient elution: eluent A being ACN and eluent B consisting of water. The analysis started with 2% […]
flow rate was 0.8 mL min-1 and injection volume was 20 μL.
The Agilent 1100 series mass spectra detection (MSD) single-quadrupole instrument was equipped with the orthogonal spray API-ES (Agilent Technologies, Palo Alto, CA). Nitrogen was used as nebulizing and drying gas. The pressure of the nebulizing gas, the flow of the drying gas, the capillary voltage, the fragmentor voltage, and the vaporization temperature were set at 40 psi, 9 L/min, 3000 V, 70 V, and 350 °C, respectively. […]
Spectra were acquired over the scan range m/z 100-1500 using a step size of 0.1 u. […]

SMILES	solubility at 24 h (Water solubility assay) [µM]	cytotoxicity value (BJ primary fibroblasts) [µM]
CCCCc1cn(-c2ccc(NC(=O)Nc3ccccc3C(F)(F)F)cc2)nn1 [BA103, 1-(4-(4-Butyl-1H-1,2,3-triazol-1-yl)phenyl)-3-(2-(trifluoromethyl)phenyl)urea]		> 200
CCCCn1nnc(-c2ccc(NC(=O)Nc3ccccc3C(F)(F)F)cc2)n1 [Compound 6, 1-(4-(2-Butyl-2H-tetrazol-5-yl)phenyl)-3-(2-(trifluoromethyl)phenyl)urea]	< 0.0251	> 200
CC(C)CCc1cn(-c2ccc(NC(=O)Nc3cccc4cnccc34)cn2)nn1 [Compound 10, 1-(6-(4-Isopentyl-1H-1,2,3-triazol-1-yl)pyridin-3-yl)-3-(isoquinolin-5-yl)urea]	< 0.0363	

Further lines, with some results ahead:

solubility at 24 h (Water solubility assay) [µM]	SMILES	cytotoxicity value (BJ primary fibroblasts) [µM]
< 0.0251	CCCCc1nnc(-c2ccc(NC(=O)Nc3ccccc3C(F)(F)F)cc2)o1 [Compound 3, 1-(4-(5-Butyl-1,3,4-oxadiazol-2-yl)phenyl)-3-(2-(trifluoromethyl)phenyl)urea]	
0.275 (≈ 0.111 µg/mL)	CCCCc1nnc(-c2ccc(NC(=O)Nc3ccccc3C(F)(F)F)cc2)[nH]1 [Compound 4, 1-(4-(5-Butyl-4H-1,2,4-triazol-3-yl)phenyl)-3-(2-(trifluoromethyl)phenyl)urea]	84.7
